The results in this text go back to PMC3880581 (Nature, 2012).

The target of the assay is AtCHI (Arabidopsis thaliana, UniProt P41088). As to conditions: cyclization of the chalcone; constant not given.
Sequence of AtCHI (P41088 whole entry): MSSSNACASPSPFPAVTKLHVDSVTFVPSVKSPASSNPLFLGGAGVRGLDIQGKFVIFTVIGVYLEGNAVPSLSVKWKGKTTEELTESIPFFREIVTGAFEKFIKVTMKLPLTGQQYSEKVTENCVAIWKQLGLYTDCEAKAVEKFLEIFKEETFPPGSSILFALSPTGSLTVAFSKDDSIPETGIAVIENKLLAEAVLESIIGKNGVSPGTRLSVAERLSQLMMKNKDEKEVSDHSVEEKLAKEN

In the case of `O=C1C[C@@H](c2ccc(O)cc2)Oc2cc(O)cc(O)c21` [(2S)-naringenin], the CHI activity assay entry is recorded as “AtCHI catalyzes the in vitro formation of (2S)-naringenin”.
